This passage reports inhibition results from patent publication US7109186B2 (Bristol-Myers Squibb Company, priority 2002, dated 2006).

Usually inhibition stands for the percentage by which the read-out fell short of the control.

For the assay, the target named is T1, HIV-integrase (Human immunodeficiency virus type 1 group M subtype B, UniProt P04585).
T1 construct: 0.26 ng of recombinant integrase was incubated with the beads for 90 min at 37 C
Nature of the assay: HIV integrase SPA integration assay (biotin-labeled substrate DNA on streptavidin SPA beads, P33-labeled target DNA). The following applies: percent inhibition of HIV-integrase in the presence of 20 μM of compound. In kind it is biochemical. As for the experimental part:
For each reaction, 5 pmole of biotin labeled substrate DNA was bound to 100 ug of Streptavidin coated PVT SPA beads (Amersham Pharmacia Biotech). 0.26 ng of recombinant integrase was incubated with the beads for 90 min at 37 C. Unbound enzyme was removed by washing the complex followed by addition of inhibitors and 0.1 fmol of P33 labeled target DNA. Reaction was stopped by adding EDTA to a final concentration of 10 mM. Samples were counted in TopCountNXT (Packard) and the CPM was used as a measure of integration. Reaction condition was as described in A. Engelman and R. Craigie, J. Virol. 69, 5908–5911 (1995). The sequences of substrate and target DNA were described in Nucleic Acid Research 22, 1121–1122 (1994).
`CN1CC(C(=O)N(C)Cc2ccc(F)cc2)=C(O)C1=O` [Compound 1, 4-Hydroxy-1-methyl-5-oxo-2,5-dihydro-1H-pyrrole-3-carboxylic acid (4-fluoro-benzyl)-methyl amide]: the inhibition at 20 µM stood at 99.9%.
With `CN(Cc1ccc(F)cc1)C(=O)C1=C(O)C(=O)N(CCc2ccc(Cl)cc2)C1` [Compound 2, 1-[2-(4-Chloro-phenyl)ethyl]-4-hydroxy-5-oxo-2,5-dihydro-1H-pyrrole-3-carboxylic acid (4-fluoro-benzyl)-methyl amide], the inhibition at 20 µM amounted to 99.9%.
Take `CN(Cc1ccc(F)cc1)C(=O)C1=C(O)C(=O)N(CCc2ccccc2Cl)C1` [Compound 3, 1-[2-(Chloro-phenyl)-ethyl]-4-hydroxy-5-oxo-2,5-dihydro-1H-pyrrole-3-carboxylic acid (4-fluoro-benzyl)-methyl amide]: the inhibition at 20 µM stood at 99.9%.
With `CN(Cc1ccc(F)cc1)C(=O)C1=C(O)C(=O)N(CCc2cccs2)C1` [Compound 4, 4-Hydroxy-5-oxo-1-(2-thiophen-2-yl-ethyl)-2,5-dihydro-1H-pyrrole-3-carboxylic acid (4-fluoro-benzyl)-methyl-amide] the figure was 99.9%.
With `CN(Cc1ccc(F)cc1)C(=O)C1=C(O)C(=O)N(CCc2ccccc2F)C1` [Compound 5, 1-[2-(2-Fluoro-phenyl)-ethyl]-4-hydroxy-5-oxo-2,5-dihydro-1H-pyrrole-3-carboxylic acid (4-fluoro-benzyl)-methyl-amide] the figure was 99.8%.
With `CN(Cc1ccc(F)cc1)C(=O)C1=C(O)C(=O)N(CCc2ccc(Cl)cc2Cl)C1` [Compound 6, 1-[2-(2,4-Dichloro-phenyl)-ethyl]-4-hydroxy-5-oxo-2,5-dihydro-1H-pyrrole-3-carboxylic acid (4-fluoro-benzyl)-methyl-amide] the figure was 99.9%.
For `CN(Cc1ccc(F)cc1)C(=O)C1=C(O)C(=O)N(CCc2ccncc2)C1` [Compound 7, 4-Hydroxy-5-oxo-1-(2-pyridin-4-yl-ethyl)-2,5-dihydro-1H-pyrrole-3-carboxylic acid (4-fluoro-benzyl)-methyl-amide], the inhibition at 20 µM stood at 99.9%.
With `CN(Cc1ccc(F)cc1)C(=O)C1=C(O)C(=O)N(CCc2ccccc2)C1` [Compound 8, 4-Hydroxy-5-oxo-1-phenethyl-2,5-dihydro-1H-pyrrole-3-carboxylic acid (4-fluoro-benzyl)-methyl-amide] the figure was 99.9%; with `CN(Cc1ccc(F)cc1)C(=O)C1=C(O)C(=O)N(CCc2ccc(F)cc2)C1` [Compound 9, 1-[2-(4-Fluoro-phenyl)-ethyl]-4-hydroxy-5-oxo-2,5-dihydro-1H-pyrrole-3-carboxylic acid (4-fluoro-benzyl)-methyl amide], 99.9%.
With `CN(Cc1ccc(F)cc1)C(=O)C1=C(O)C(=O)N(CCCc2ccccc2)C1` [Compound 10, 4-Hydroxy-5-oxo-1-(3-phenyl-propyl)-2,5-dihydro-1H-pyrrole-3-carboxylic acid (4-fluoro-benzyl)-methyl-amide] the figure was 99.9%.
With `CC(C)N1CC(C(=O)N(C)Cc2ccc(F)cc2)=C(O)C1=O` [Compound 11, 4-Hydroxy-1-isopropyl-5-oxo-2,5-dihydro-1H-pyrrole-3-carboxylic acid (4-fluoro-benzyl)-methyl-amide] the figure was 99.9%; with `CN1CC(C(=O)N(C)Cc2ccc(Cl)c(Cl)c2)=C(O)C1=O` [Compound 12, 4-Hydroxy-1-methyl-5-oxo-2,5-dihydro-1H-pyrrole-3-carboxylic acid (3,4-dichloro-benzyl)-methyl amide], 99.9%; with `CN(Cc1ccc(Cl)c(Cl)c1)C(=O)C1=C(O)C(=O)N(CCN2CCOCC2)C1` [Compound 13, 4-Hydroxy-1-(2-morpholin-4-yl-ethyl)-5-oxo-2,5-dihydro-1H-pyrrole-3-carboxylic acid (3,4-dichloro-benzyl)-methyl-amide], 99.9%.
For `CNCCN1CC(C(=O)N(C)Cc2ccc(Cl)c(Cl)c2)=C(O)C1=O` [Compound 15, 4-Hydroxy-1-(2-methylamino-ethyl)-5-oxo-2,5-dihydro-1H-pyrrole-3-carboxylic acid (3,4-dichloro-benzyl)-methyl-amide], the inhibition at 20 µM was found to be 99.7%.
Consider `CN(Cc1ccc(Cl)c(Cl)c1)C(=O)C1=C(O)C(=O)N(CC(C)(C)C)C1` [Compound 16, 1-(2,2-Dimethyl-propyl)-4-hydroxy-5-oxo-2,5-dihydro-1H-pyrrole-3-carboxylic acid (3,4-dichloro-benzyl)-methyl-amide], for which the inhibition at 20 µM worked out at 99.9%.
With `CN(Cc1ccc(Cl)c(Cl)c1)C(=O)C1=C(O)C(=O)N(CCc2ccc(S(N)(=O)=O)cc2)C1` [Compound 17, 4-Hydroxy-5-oxo-1-[2-(4-sulfamoyl-phenyl)-ethyl]-2,5-dihydro-1H-pyrrole-3-carboxylic acid (3,4-dichloro-benzyl)-methyl-amide] the figure was 99.9%; with `CN(Cc1ccc(Cl)c(Cl)c1)C(=O)C1=C(O)C(=O)N(Cc2ccc(Cl)c(Cl)c2)C1` [Compound 19, 1-(3,4-Dichloro-benzyl)-4-hydroxy-5-oxo-2,5-dihydro-1H-pyrrole-3-carboxylic acid (3,4-dichloro-benzyl)-methyl-amide], 99.9%; with `CN(Cc1ccc(Cl)c(Cl)c1)C(=O)C1=C(O)C(=O)N(Cc2ccncc2)C1` [Compound 21], 99.9%.
For `CCN1CCCC1CN1CC(C(=O)N(C)Cc2ccc(Cl)c(Cl)c2)=C(O)C1=O` (stereo not drawn) [Compound 22, 1-(1-Ethyl-pyrrolidin-2-ylmethyl)-4-hydroxy-5-oxo-2,5-dihydro-3-carboxylic acid (3,4-dichloro-benzyl)-methyl-amide], the inhibition at 20 µM turned out to be 99.9%.
As to `CN(Cc1ccc(Cl)c(Cl)c1)C(=O)C1=C(O)C(=O)N(CCP(=O)(O)O)C1` [Compound 23, (2-{4-[(3,4-Dichloro-benzyl)-methyl-carbamoyl]-3-hydroxy-2-oxo-2,5-dihydro-pyrrol-1-yl}-ethyl)-phosphonic acid], the inhibition at 20 µM was determined as 99.9%.
With `CCOP(=O)(CCN1CC(C(=O)N(C)Cc2ccc(Cl)c(Cl)c2)=C(O)C1=O)OCC` [Compound 23-A, (2-[4-[(3,4-Dichloro-benzyl)-methyl-carbamoyl]-3-hydroxy-2-oxo-2,5-dihydro-pyrrol-1-yl]-ethyl)-phosphonic acid diethyl ester] the figure was 99.9%.
With `CN(Cc1ccc(Cl)c(Cl)c1)C(=O)C1=C(O)C(=O)N(CCCC(=O)O)C1` [Compound 24, 4-{4-[(3,4-Dichloro-benzyl)-methyl-carbamoyl]-3-hydroxy-2-oxo-2,5-dihydro-pyrrol-1-yl}-butyric acid] the figure was 99.9%; with `CN(Cc1ccc(Cl)c(Cl)c1)C(=O)C1=C(O)C(=O)N(C(CC(N)=O)C(=O)O)C1` (stereo not drawn) [Compound 25, 2-{4-[(3,4-Dichloro-benzyl)-methyl-carbamoyl]-3-hydroxy-2-oxo-2,5-dihydro-pyrrol-1-yl}-succinamic acid], 99.9%.
With `CN(Cc1ccc(Cl)c(Cl)c1)C(=O)C1=C(O)C(=O)N(CCN2CCCCC2)C1` [Compound 26, 4-Hydroxy-5-oxo-1-(2-piperidin-1-yl-ethyl)-2,5-dihydro-1H-pyrrole-3-carboxylic acid (3,4-dichloro-benzyl)-methyl-amide] the figure was 99.9%.
